Measurements from patent US3932383A, “9-Dihydroniddamycin A compounds and related 3-(O)-esters and the process for their preparation” (Abbott Laboratories, priority 1974, dated 1976).
In brackets after ≈: the same amount, converted by molar mass.

Assays:
Type in all cases: cell-based
Mycoplasma pneumoniae FH [1] = assay: two-fold tube dilution test; conditions: 144 h, PPLO broth, 6 days at 37° C., read-out: Minimum Inhibitory Concentration
Experimental: (§1) Three niddamycin and two dihydroniddamycin compounds were tested for their activity against Streptococcus pyogenes C203, Diplococcus pneumoniae 6301 and Mycoplasma pneumoniae FH.
(§2) A standard two-fold tube dilution test was used. The medium and inoculum were varied with each culture.
In the test for activity against Mycoplasma pneumoniae FH, 4.5 ml. portions of PPLO broth were used with 0.5 ml. of a 1:100 dilution culture. the test was incubated for 6 days at 37° C.

[2] = system: Streptococcus pyogenes C203; assay: two-fold tube dilution test; conditions: brain-heart infusion broth, 24 hours at 37° C., read-out: Minimum Inhibitory Concentration
Experimental: as §1, §2
In the test for activity against Streptococcus pyrogenes C203, 5 ml. portions of brain-heart infusion broth were used with 0.1 ml. of a 1:100 dilution culture. The test was incubated for 24 hours at 37° C.

[3] = system: Staphylococcus aureus Wise 155; assay: agar two-fold dilution test; conditions: WISE155, 37° C., read-out: Minimum Inhibitory Concentration
Experimental: (§3) Two niddamycin derivatives were tested for their activity against 21 organisms.
(§4) An agar dilution two-fold dilution test was used for the first 14 bacterial organisms, while the remaining seven were tested by means of a two-fold tube dilution method. The incubation for all the tests was carried out at 37° C.
(§5) The niddamycin base compound (M-188 ) was used as the control compound.

[4] = system: Proteus mirabilis Finland No. 9; assay: agar two-fold dilution test; conditions: 37° C., read-out: Minimum Inhibitory Concentration
Experimental: as §3, §4, §5

[5] = system: Klebsiella pneumoniae 10031; assay: agar two-fold dilution test; conditions: 37° C., read-out: Minimum Inhibitory Concentration
Experimental: as §3, §4, §5

[6] = system: Proteus vulgaris Abbott JJ; assay: agar two-fold dilution test; conditions: 37° C., read-out: Minimum Inhibitory Concentration
Experimental: as §3, §4, §5

[7] = system: Staphylococcus aureus Smith ER; assay: agar two-fold dilution test; conditions: read-out: Minimum Inhibitory Concentration
Experimental: as §3, §4, §5

[8] = system: Streptococcus faecalis 10541; assay: agar two-fold dilution test; conditions: Enterococcus faecalis, 37° C., read-out: Minimum Inhibitory Concentration
Experimental: as §3, §4, §5

[9] = system: Pasteurella multocida 10544; assay: agar two-fold dilution test; conditions: 37° C., read-out: Minimum Inhibitory Concentration
Experimental: as §3, §4, §5

Escherichia coli Juhl = assay: agar two-fold dilution test; conditions: 37° C., read-out: Minimum Inhibitory Concentration
Experimental: as §3, §4, §5

[10] = system: Pseudomonas aeruginosa BMH No. 10; assay: agar two-fold dilution test; conditions: BMHNO.10, 37° C., read-out: Minimum Inhibitory Concentration
Experimental: as §3, §4, §5

[11] = system: Streptococcus pyogenes Roper; assay: agar two-fold dilution test; conditions: 37° C., read-out: Minimum Inhibitory Concentration
Experimental: as §3, §4, §5

Shigella sonnei 9290 = assay: agar two-fold dilution test; conditions: 37° C., read-out: Minimum Inhibitory Concentration
Experimental: as §3, §4, §5

[12] = system: Staphylococcus aureus Smith; assay: agar two-fold dilution test; conditions: 37° C., read-out: Minimum Inhibitory Concentration
Experimental: as §3, §4, §5

[13] = system: Salmonella typhimurium Ed No. 9; assay: agar two-fold dilution test; conditions: Salmonella enterica, 37° C., read-out: Minimum Inhibitory Concentration
Experimental: as §3, §4, §5

[14] = system: Staphylococcus aureus 9144; assay: agar two-fold dilution test; conditions: 37° C., read-out: Minimum Inhibitory Concentration
Experimental: as §3, §4, §5

M. verrucaria = assay: standard FG (fungi) screening program; conditions: read-out: Minimum Inhibitory Concentration
Experimental: (§6) The samples were also tested on the standard FG (fungi) screening program.
as §5

Alternaria label isolate = assay: standard FG (fungi) screening program; conditions: read-out: Minimum Inhibitory Concentration
Experimental: as §6, §5

Rhizopus nigricans = assay: standard FG (fungi) screening program; conditions: Rhizopus stolonifer, read-out: Minimum Inhibitory Concentration
Experimental: as §6, §5

P. citrinum = assay: standard FG (fungi) screening program; conditions: Penicillium citrinum, read-out: Minimum Inhibitory Concentration
Experimental: as §6, §5

A. versicolor = assay: standard FG (fungi) screening program; conditions: Aspergillus versicolor, read-out: Minimum Inhibitory Concentration
Experimental: as §6, §5

F. oxysporum = assay: standard FG (fungi) screening program; conditions: Fusarium oxysporum, read-out: Minimum Inhibitory Concentration
Experimental: as §6, §5

C. globosum = assay: standard FG (fungi) screening program; conditions: Chaetomium globosum, read-out: Minimum Inhibitory Concentration
Experimental: as §6, §5

Crithidia fasciculata = assay: two-fold tube dilution method; conditions: 37° C., read-out: Minimum Inhibitory Concentration
Experimental: as §3, §4, §5

[15] = system: Mycoplasma gallispeticum S6; assay: two-fold tube dilution method; conditions: 37° C., read-out: Minimum Inhibitory Concentration
Experimental: as §3, §4, §5

Mycoplasma pneumoniae FH [16] = assay: two-fold tube dilution method; conditions: 37° C. (Table 2), read-out: Minimum Inhibitory Concentration
Experimental: as §3, §4, §5

[17] = system: Haemophilus influenzae 9334; assay: two-fold tube dilution method; conditions: 37° C., read-out: Minimum Inhibitory Concentration
Experimental: as §3, §4, §5

[18] = system: Mycoplasma granularum 19168; assay: two-fold tube dilution method; conditions: Acholeplasma granularum, 37° C., read-out: Minimum Inhibitory Concentration
Experimental: as §3, §4, §5

[19] = system: Mycoplasma hyorhinis 17981; assay: two-fold tube dilution method; conditions: 37° C., read-out: Minimum Inhibitory Concentration
Experimental: as §3, §4, §5

[20] = system: Trichomonas vaginalis C1M1; assay: two-fold tube dilution method; conditions: 37° C., read-out: Minimum Inhibitory Concentration
Experimental: as §3, §4, §5

[21] = system: Diplococcus pneumoniae 6301; assay: two-fold tube dilution test; conditions: Streptococcus pneumoniae, brain-heart infusion broth and 20% horse serum, 24 hours at 37° C., read-out: Minimum Inhibitory Concentration
Experimental: as §1, §2
In the test for activity against Diplococcus pneumoniae 6301, 5 ml. portions of brain-heart infusion broth and 20% horse serum were used with 0.1 ml. of 1:100 dilution culture. The test was incubated for 24 hours at 37° C.

COC(CC1CC(C)C(O)C=CC=CCC(C)OC(=O)CC(OC(C)=O)C(OC)C1OC1OC(C)C(OC2CC(C)(O)C(OC(=O)CC(C)C)C(C)O2)C(N(C)C)C1O)OC (single isomer, unassigned) [Compound 7B, 3-(O)-Acetyl-9-dihydroniddamycin A dimethyl acetal]
MIC (Mycoplasma pneumoniae FH [1]): 50 µg/mL (≈ 57.2 µM)
MIC [2]: 100 µg/mL (≈ 114 µM)

COC(CC1CC(C)C(=O)C=CC=CCC(C)OC(=O)CC(OC(C)=O)C(OC)C1OC1OC(C)C(OC2CC(C)(O)C(OC(=O)CC(C)C)C(C)O2)C(N(C)C)C1O)OC (stereo not drawn) [Compound 6B, 3-(O)-Acetylniddamycin dimethyl acetal]
MIC (Mycoplasma pneumoniae FH [1]): 25 µg/mL (≈ 28.7 µM)
MIC [2]: 12.5 µg/mL (≈ 14.3 µM)

COC1C(OC(C)=O)CC(=O)OC(C)CC=CC=CC(O)C(C)CC(CC=O)C1OC1OC(C)C(OC2CC(C)(O)C(OC(=O)CC(C)C)C(C)O2)C(N(C)C)C1O (single isomer, unassigned) [Compound 8B, 3-(O)-Acetyl-9-Dihydroniddamycin A]
MIC [3]: 1.56 µg/mL (≈ 1.88 µM)
MIC [4]: > 100 µg/mL
MIC [5]: 25 µg/mL (≈ 30.2 µM)
MIC [6]: > 100 µg/mL
MIC [7]: > 100 µg/mL
MIC [8]: 1.56 µg/mL (≈ 1.88 µM)
MIC [9]: 12.5 µg/mL (≈ 15.1 µM)
MIC (Escherichia coli Juhl): > 100 µg/mL
MIC [10]: > 100 µg/mL
MIC [11]: > 100 µg/mL
MIC (Shigella sonnei 9290): > 100 µg/mL
MIC [12]: 0.78 µg/mL (≈ 0.942 µM)
MIC [13]: > 100 µg/mL
MIC [14]: 0.78 µg/mL (≈ 0.942 µM)
MIC (M. verrucaria): > 100 µg/mL
MIC (Alternaria label isolate): > 100 µg/mL
MIC (Rhizopus nigricans): > 100 µg/mL
MIC (P. citrinum): > 100 µg/mL
MIC (A. versicolor): > 100 µg/mL
MIC (F. oxysporum): > 100 µg/mL
MIC (C. globosum): > 100 µg/mL
MIC (Crithidia fasciculata): > 100 µg/mL
MIC [15]: 0.25 µg/mL (≈ 0.302 µM)
MIC (Mycoplasma pneumoniae FH [16]): 25 µg/mL (≈ 30.2 µM)
MIC [17]: 6.2 µg/mL (≈ 7.49 µM)
MIC [18]: 5 µg/mL (≈ 6.04 µM)
MIC [19]: 0.5 µg/mL (≈ 0.604 µM)
MIC [20]: > 100 µg/mL

COC(CC1CC(C)C(O)C=CC=CCC(C)OC(=O)CC(O)C(OC)C1OC1OC(C)C(OC2CC(C)(O)C(OC(=O)CC(C)C)C(C)O2)C(N(C)C)C1O)OC (single isomer, unassigned) [Compound 3, 9-Dihydroniddamycin A dimethyl acetal]
MIC (Mycoplasma pneumoniae FH [1]): 50 µg/mL (≈ 60.1 µM)
MIC [2]: 25 µg/mL (≈ 30 µM)

COC(CC1CC(C)C(=O)C=CC=CCC(C)OC(=O)CC(O)C(OC)C1OC1OC(C)C(OC2CC(C)(O)C(OC(=O)CC(C)C)C(C)O2)C(N(C)C)C1O)OC (stereo not drawn) [Compound 2, Niddamycin dimethyl acetal]
MIC (Mycoplasma pneumoniae FH [1]): 25 µg/mL (≈ 30.1 µM)
MIC [2]: 0.78 µg/mL (≈ 0.94 µM)
MIC [21]: ≤ 1.56 µg/mL

COC1C(O)CC(=O)OC(C)CC=CC=CC(O)C(C)CC(CC=O)C1OC1OC(C)C(OC2CC(C)(O)C(OC(=O)CC(C)C)C(C)O2)C(N(C)C)C1O (single isomer, unassigned) [Compound 5, 9-Dihydroniddamycin A]
MIC [3]: 1.56 µg/mL (≈ 1.98 µM)
MIC [4]: > 100 µg/mL
MIC [5]: 12.5 µg/mL (≈ 15.9 µM)
MIC [6]: > 100 µg/mL
MIC [7]: > 100 µg/mL
MIC [8]: 0.78 µg/mL (≈ 0.992 µM)
MIC [9]: 12.5 µg/mL (≈ 15.9 µM)
MIC (Escherichia coli Juhl): > 100 µg/mL
MIC [10]: > 100 µg/mL
MIC [11]: > 100 µg/mL
MIC (Shigella sonnei 9290): > 100 µg/mL
MIC [12]: 0.78 µg/mL (≈ 0.992 µM)
MIC [13]: > 100 µg/mL
MIC [14]: 0.78 µg/mL (≈ 0.992 µM)
MIC (M. verrucaria): > 100 µg/mL
MIC (Alternaria label isolate): > 100 µg/mL
MIC (Rhizopus nigricans): > 100 µg/mL
MIC (P. citrinum): > 100 µg/mL
MIC (A. versicolor): > 100 µg/mL
MIC (F. oxysporum): > 100 µg/mL
MIC (C. globosum): > 100 µg/mL
MIC (Crithidia fasciculata): > 100 µg/mL
MIC [15]: 0.25 µg/mL (≈ 0.318 µM)
MIC (Mycoplasma pneumoniae FH [16]): 50 µg/mL (≈ 63.6 µM)
MIC [17]: 6.2 µg/mL (≈ 7.89 µM)
MIC [18]: 2.5 µg/mL (≈ 3.18 µM)
MIC [19]: 0.25 µg/mL (≈ 0.318 µM)
MIC [20]: > 100 µg/mL

COC(CC1CC(C)C(=O)C=CC=CCC(C)OC(=O)CC(OC(C)=O)C(OC)C1OC1OC(C)C(OC2CC(C)(O)C(OC(=O)CC(C)C)C(C)O2)C(N(C)C)C1OC(C)=O)OC (stereo not drawn) [Compound 4B, 2',3-Di-(O)-acetylniddamycin dimethyl acetal]
MIC (Mycoplasma pneumoniae FH [1]): > 100 µg/mL
MIC [2]: > 100 µg/mL
MIC [21]: > 100 µg/mL

COC1C(O)CC(=O)OC(C)CC=CC=CC(=O)C(C)CC(CC=O)C1OC1OC(C)C(OC2CC(C)(O)C(OC(=O)CC(C)C)C(C)O2)C(N(C)C)C1O (stereo not drawn) [Niddamycin Base, niddamycin]
MIC [3]: 0.78 µg/mL (≈ 0.995 µM)
MIC [4]: > 100 µg/mL
MIC [5]: 12.5 µg/mL (≈ 15.9 µM)
MIC [6]: > 100 µg/mL
MIC [7]: > 100 µg/mL
MIC [8]: 0.78 µg/mL (≈ 0.995 µM)
MIC [9]: 12.5 µg/mL (≈ 15.9 µM)
MIC (Escherichia coli Juhl): > 100 µg/mL
MIC [10]: > 100 µg/mL
MIC [11]: > 100 µg/mL
MIC (Shigella sonnei 9290): > 100 µg/mL
MIC [12]: 0.39 µg/mL (≈ 0.497 µM)
MIC [13]: > 100 µg/mL
MIC [14]: 0.39 µg/mL (≈ 0.497 µM)
MIC (M. verrucaria): > 100 µg/mL
MIC (Alternaria label isolate): > 100 µg/mL
MIC (Rhizopus nigricans): > 100 µg/mL
MIC (P. citrinum): > 100 µg/mL
MIC (A. versicolor): > 100 µg/mL
MIC (F. oxysporum): > 100 µg/mL
MIC (C. globosum): > 100 µg/mL
MIC (Crithidia fasciculata): > 100 µg/mL
MIC [15]: 0.1 µg/mL (≈ 0.128 µM)
MIC (Mycoplasma pneumoniae FH [16]): 10 µg/mL (≈ 12.8 µM)
MIC [17]: 3.1 µg/mL (≈ 3.95 µM)
MIC [18]: 1 µg/mL (≈ 1.28 µM)
MIC [19]: 0.25 µg/mL (≈ 0.319 µM)
MIC [20]: > 100 µg/mL
